{"source": "patent US5591711A", "about": "“L-lysyl-glycyl-L-histidine and therapeutic agent for wound healing containing the same” (Hoechst Japan Limited, priority 1994, dated 1997)", "test_system": "Balb/3T3 cells", "experiment": "Fibroblast proliferation promoting activity (3H-thymidine incorporation)", "assay_type": "cell-based", "settings": "Balb/3T3 fibroblasts; for Incorporated 3H-thymidine: 15 h incubation then 6 h 3H-thymidine, mean ± SD, 4 cases per group", "protocol": "Fibroblast cell strains, Balb/3T3 cells (purchased from ATCC) were inoculated into a 96-well culture plate at-5×10^3 cells/well, 100 μl of 10% calf serum-containing Dulbecco Modified Eagle Medium (hereinafter referred to as DME) was added and incubated at. 37 uC for 24 hours in an incubator. Then, the culture medium was removed and the cells were washed. One hundred μl of lowered serum medium (0.2% calf serum-containing DME) Was added to the wells and incubation was continued for another 3 days. L-lysyl-glycyl-L-histidine obtained in Example 1 was added thereto at 10 μl/well and incubation was performed for 15 hours. The culture medium contains a trace amount of Cu2+, and a part of L-lysyl-glycyl-L-histidine may form copper complexes. The 3H-thymidine was added to be 74 KBq/ml and incubation was performed for 6 hours. After completion of the incubation, the medium was removed, the cells were collected and the amount of 3H-thymidine incorporated in the cells was determined.", "note": "Peptide text beside a SMILES is read from it."}
{"smiles": "NCCCC[C@H](N)C(=O)NCC(=O)N[C@@H](Cc1c[nH]cn1)C(=O)O", "note": "[L-lysyl-glycyl-L-histidine] (H-Lys-Gly-His-OH)", "values": [{"measurement": "cell proliferation promoting activity", "setting": "10^-6 to 10^-3 M, conclusion from Table 1", "result": "dose-dependent cell proliferation promoting activity"}, {"measurement": "Incorporated 3H-thymidine", "setting": "Dose 10^-3 M", "result": "7719.5 ± 1246.8", "unit": "cpm"}, {"measurement": "Incorporated 3H-thymidine", "setting": "Dose 10^-4 M", "result": "4889.8 ± 495.1", "unit": "cpm"}, {"measurement": "Incorporated 3H-thymidine", "setting": "Dose 10^-5 M", "result": "1371.8 ± 249.1", "unit": "cpm"}, {"measurement": "Incorporated 3H-thymidine", "setting": "Dose 10^-6 M", "result": "1406.5 ± 470.5", "unit": "cpm"}]}
